Data taken from patent US20200000752A1, “Method for Treating Epilepsy” (Vanderbilt University, priority 2016, published 2020).

Assays:
Gabrg2^+/Q390X mice = test: EEG spike-wave discharges (SWD) in Gabrg2+/Q390X mice after 14 days dosing; assay type: in vivo, mouse
Protocol: (FIG. 4A). […] . (FIG. 4B). In 4B, the mice were recorded for 24 hrs for EEGs and a uniform 5-min of EEGs was scored for each hour. The SWDs with duration >1 sec were quantified.

[1] = system: GABAA receptor α1 subunit; test: GABAAR α1 subunit expression by high-throughput flow cytometry in HEK 293T cells; assay type: cell-based, human
Protocol: The neuronal viability was determined with membrane integrity by trypan blue exclusion method^12. The mean survival was determined by counting eight randomly selected, non-overlapping fields with each containing approximately 10-20 neurons (viable+nonviable) (n=4 different cultures). GABAAR expression was determined by the high-throughput flow cytometry. HEK 293T cells were transfected with human α1, β2 and γ2 subunit cDNAs at 1:1:1 ratio for 48 hours. The α1 subunit was chosen as readout. The anti-α1 antibody was directly conjugated with Alexa 488 (data are mean±SEM, n=4). The healthy population was gated.
HEK 293T cells were transfected with wt γ2 or γ2(Q390X) subunits in combination with al and […] subunits at 1:1:1 cDNA ratio for 48 hrs. […] The cells were either unpermeabilized for surface staining (FIG. 11A, 11C) or permeabilized for total staining (FIG. 11B, 11D). al subunits were probed with mouse anti-α1 subunit antibody conjugated with Alexa 647. The relative al subunit fluorescence intensity (FI) was normalized to the wild-type without celastrol treatment.

[2] = system: mutant γ2(Q390X) subunit protein; test: Western blot of mutant γ2(Q390X) subunit protein in HEK 293T cells; assay type: cell-based; settings: 1 μm for 4 hours
Protocol: Total lysates from HEK 293T cells expressing wild-type α1β2γ2 (wt) or the mutant α1β2γ2(Q390X) (mut) receptors for 48 hrs from or from 1 year old wt or Gabrg2^+/Q390X (het) mouse brains were analyzed by western blot (FIGS. 10A and 10B).

[3] = target: T1, GABAA α1β2γ2(R82Q) receptors (Homo sapiens, UniProt P14867+P18507+P47870, R82Q); test: Patch clamp current amplitude, α1β2γ2(R82Q) receptors in HEK 293T cells; assay type: cell-based; settings: 1 μm, 4 hrs; GABA 1 mM
T1 construct: expressed in transfected cells; host or cells: HEK 293T
T1 sequence (P14867 28-456): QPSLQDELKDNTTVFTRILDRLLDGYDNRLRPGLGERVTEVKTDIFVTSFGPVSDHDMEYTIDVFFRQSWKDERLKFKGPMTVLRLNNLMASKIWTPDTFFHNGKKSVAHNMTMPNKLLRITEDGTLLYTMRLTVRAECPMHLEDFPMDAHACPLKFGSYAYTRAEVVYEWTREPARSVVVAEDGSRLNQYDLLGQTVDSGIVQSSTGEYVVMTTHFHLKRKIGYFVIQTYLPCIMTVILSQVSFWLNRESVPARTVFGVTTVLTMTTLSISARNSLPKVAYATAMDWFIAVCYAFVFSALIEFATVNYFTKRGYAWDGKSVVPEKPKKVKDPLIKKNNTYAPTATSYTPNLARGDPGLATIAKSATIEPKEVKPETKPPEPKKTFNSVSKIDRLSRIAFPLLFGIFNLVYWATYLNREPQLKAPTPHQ
T1 sequence (P47870 25-512 limits assumed): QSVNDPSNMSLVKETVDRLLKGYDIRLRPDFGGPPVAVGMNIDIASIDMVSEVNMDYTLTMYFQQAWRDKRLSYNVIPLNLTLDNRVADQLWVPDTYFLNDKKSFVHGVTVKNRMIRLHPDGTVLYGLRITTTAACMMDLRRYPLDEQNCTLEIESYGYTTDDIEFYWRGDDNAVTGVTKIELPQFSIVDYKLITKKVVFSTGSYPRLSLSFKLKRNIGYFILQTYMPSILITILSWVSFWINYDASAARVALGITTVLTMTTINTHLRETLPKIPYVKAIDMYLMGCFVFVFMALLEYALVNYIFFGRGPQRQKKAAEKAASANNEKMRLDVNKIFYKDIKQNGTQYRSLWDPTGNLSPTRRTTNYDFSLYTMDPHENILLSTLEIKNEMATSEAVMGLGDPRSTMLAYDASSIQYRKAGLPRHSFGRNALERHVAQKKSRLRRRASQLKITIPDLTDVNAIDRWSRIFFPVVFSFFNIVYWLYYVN
T1 sequence (P18507 40-467 isoform P18507-1 R82Q limits assumed): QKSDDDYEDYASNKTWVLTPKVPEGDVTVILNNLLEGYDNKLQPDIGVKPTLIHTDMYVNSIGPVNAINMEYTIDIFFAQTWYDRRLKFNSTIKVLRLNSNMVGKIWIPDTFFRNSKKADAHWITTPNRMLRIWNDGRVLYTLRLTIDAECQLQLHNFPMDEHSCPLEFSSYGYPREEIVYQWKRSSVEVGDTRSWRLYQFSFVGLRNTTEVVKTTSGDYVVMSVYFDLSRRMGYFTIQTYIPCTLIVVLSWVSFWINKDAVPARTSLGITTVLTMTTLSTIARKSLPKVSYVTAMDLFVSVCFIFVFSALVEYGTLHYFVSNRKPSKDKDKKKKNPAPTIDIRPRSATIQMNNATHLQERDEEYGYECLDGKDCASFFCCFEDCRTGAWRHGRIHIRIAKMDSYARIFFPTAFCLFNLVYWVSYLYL
Protocol: HEK 293T cells were transfected with the human GABAA receptor α1, β2 subunits with the wild-type γ2s, the mutant γ2s(Q390X) or γ2s(R82Q) subunits for 48 hrs. […] A. Lifted whole cells were recorded with the application of GABA 1 mM for 6 sec. Cells was voltage clamped at −50 mV.
HEK 293T cells were transfected with the human GABAA receptor α1, β2 subunits with the wild-type γ2s, the mutant γ2s(Q390X) or γ2s(R82Q) subunits for 48 hrs.

GABAergic mIPSCs = GABAergic mIPSCs in cortical layer VI pyramidal neurons of Gabrg2+/Q390X mice; assay type: in vivo, mouse
Source text: […]. This effect is consistent with its upregulation of GABAA receptor subunits. There is no difference between the decay tau (time constant) in the condition treated with celastrol vs non treated. (n=7-9 cells from 3 mice in each group, *P<0.05, ** P<0.01 vs het).
Coronal ([…]) or horizontal ([…] thick) brain slices containing thalamic neurons in nucleus reticularis thalami (nRT), ventrobasal nucleus (VBn), Ventral lateral thalamus (VL) and cortex will be sectioned with a vibratome in ice-cooled solution containing (in mM) 214 Sucrose, 2.5 KCl, 1.25 NaH2PO4, 0.5 CaCl2), 10 MgSO4, 24 NaHCO3, and 11 D-glucose, pH 7.4 bubbled with 95% O2/5% CO2 at 4° C. Slices are then incubated in oxygenated artificial cerebrospinal fluid (ACSF)^40 at 36° C. for 30 min (Moyer and Brown, 1998). After this, slices will be kept at room temperature for at least 1 hr before recording on a Nikon Eclipse FN-1 IR-DIC microscope at room temperature. Pipette internal solution will contain (in mM): 135 CsCl, 10 EGTA, 10 HEPES, 5 ATP-Mg, and QX-314 (5 mM) (pH 7.25, 290-295 mOsm), and resistances will be of 2-4 MΩ (25). Tetrodotoxin (TIX) 1 μm will be added to the external solution. We will record the neurons in layer V-VI in somatosemsory cortex in this application. The experimental details have been described before^39.

AKT, active caspase 3 = test: P-AKT immunoblot and active caspase 3 staining in cells and Gabrg2+/Q390X mice; set-up: species or system mouse
Protocol: Total lysates from HEK 293T cells expressing the wild-type (wt) or the mutant α1β2γ2(Q390X) (mut) receptors (FIG. 17A) or from Gabrg2^+/Q390X mouse cortex (17B) were analyzed by SDS-PAGE. The membranes were immunoblotted with the phosphorylated AKT (P-AKT). FIG. 17C. Paraffin-embedded brain sections from 1 year old wild-type (wt) and heterozygous Gabrg2^+/Q390X (het) mice were stained with the active form of caspase 3 (green) and NeuN (red). The cell nuclei were stained with TO-PRO-3 (blue).

[4] = system: synaptic scaffold protein gephyrin; test: Gephyrin staining in brain sections of Gabrg2+/Q390X mice; assay type: in vivo, mouse; settings: 0.3 mg/kg for 14 days
Source text: Synaptosomes from mouse forebrains were isolated by subcellular fractionation^7. The samples were then fractionated by SDS-PAGE and immunoblotted by rabbit polyclonal anti-γ2 subunit antibody and synaptic scaffold proteins including gephyrin, collybistin, synaptogamin 1 and neuroligin II. The γ2 subunit protein and synaptic scaffold proteins were reduced in the Gabrg2^+/Q390X (het) mice. (FIG. 18A). […] The sections were then stained with rabbit anti-γ2 subunit (green) and mouse monoclonal anti-gephyrin (red) antibodies. The nuclei were stained with TO-PRO-3. (FIG. 18B). The raw fluorescence values of gephyrin was measured by ImageJ. […] (FIG. 18C).

[5] = system: epilepsy mouse models, AppSWE/PsenIdE9 mice; test: PTZ seizure severity (Racine scale) in different epilepsy mouse models and AppSWE/PsenIdE9 mice; assay type: in vivo; settings: 0.3 mg/kg IP daily×14 days; PTZ 50 mg/kg IP; n=5 per group
Source text: In this regard, an asterisk stands for the mutant protein aggregation in the neurons in related mouse models.

[6] = system: cytochrome P450 enzymes (CYPs); settings: cited from earlier work
CYP 2C8 = CYP 2C8 (Homo sapiens, UniProt P10632); test: biochemical
Chain of CYP 2C8 (P10632 whole entry): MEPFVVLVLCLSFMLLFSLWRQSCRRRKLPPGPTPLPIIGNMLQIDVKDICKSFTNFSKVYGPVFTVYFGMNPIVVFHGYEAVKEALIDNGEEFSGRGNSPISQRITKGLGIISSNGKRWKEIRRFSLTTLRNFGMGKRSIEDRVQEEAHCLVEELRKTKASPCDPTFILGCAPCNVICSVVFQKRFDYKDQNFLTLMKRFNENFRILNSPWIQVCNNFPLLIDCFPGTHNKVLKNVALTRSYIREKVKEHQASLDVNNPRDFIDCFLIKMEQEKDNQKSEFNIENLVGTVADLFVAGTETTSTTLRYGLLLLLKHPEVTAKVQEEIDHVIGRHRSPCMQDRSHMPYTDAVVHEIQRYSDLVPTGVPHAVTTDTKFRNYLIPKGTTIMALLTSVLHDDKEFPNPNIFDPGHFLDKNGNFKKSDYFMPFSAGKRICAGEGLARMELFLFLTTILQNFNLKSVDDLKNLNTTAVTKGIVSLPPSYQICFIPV

CC1=C(O)C(=O)C=C2C1=CC=C1[C@@]2(C)CC[C@@]2(C)[C@@H]3C[C@](C)(C(=O)O)CC[C@]3(C)CC[C@]12C [Celastrol, 3-Hydroxy-9β,13α-dimethyl-2-oxo-24,25,26-trinoroleana-1(10),3,5,7-tetraen-29-oic acid]
efficacy and tolerability (Gabrg2^+/Q390X mice; 0.3 mg/kg IP daily for 14 days): good efficacy and tolerability
seizures (Gabrg2^+/Q390X mice; 1 and 5 mg/kg via oral gavage): seizure reduction
frequency of SWDs (Gabrg2^+/Q390X mice; IP or oral gavage daily for 14 days, SWDs >1 sec, 24 hrs EEG): dose dependently reduced
cell death ([1]; HEK 293T dishes with 2 and 4 μm): Cell death was observed
surface α1 subunits ([1]; HEK 293T, α1β2γ2, 0-8 μm for 4 hours): concentration dependently increased
mutant γ2(Q390X) subunit protein [2]: reduced
current amplitude [3]: increased
amplitude of GABAergic mIPSCs (GABAergic mIPSCs; 0.3 mg/kg IP for 14 days): increased
frequency of GABAergic mIPSCs (GABAergic mIPSCs; 0.3 mg/kg IP for 14 days): increased
decay tau (time constant) (GABAergic mIPSCs; treated vs non treated): no difference
active caspase 3 (AKT, active caspase 3; 0.3 mg/kg IP 2 weeks): Reducing Active Caspase 3
AKT (P-AKT) (AKT, active caspase 3; 0.3 mg/kg IP 2 weeks in mice, HEK 293T cells): Activating AKT
gephyrin puncta [4]: increased gephyrin puncta
seizure severity [5]: reduced seizure severity
Number SWDs (Scn1a^+/− mice; SWDs over 1 sec, 30 min after PTZ 50 mg/kg, n=2, celastrol 0.3 mg/kg intermittent (8th day of drug holiday), diazepam 0.3 mg/kg, stiripentol 150 mg/kg, saline 21): 2
efficacy in reducing seizure severity versus comparators (Scn1a^+/− mice; chronic intermittent dosing 0.3 mg/kg IP): Better Efficacy in Reducing Seizure Severity than Diazepam or Stiripentol
CYP inhibition as reported in the literature [6]: inhibits several CYP enzymes
IC50 (CYP 2C8): 2.19 µM
